Reference: article PMC10824666 (Nature Cancer, 2023)
Like-named read-outs stand apart in the source and are kept apart here.

Columns and labels:
Experiment in all cases: biochemical
Design in all cases: Eurofins DiscoverX kinase panel, competitive binding assay at 1 uM, percent of DMSO control
Details in all cases: competitive binding, percent of DMSO control
[1] = target: T1, Abl_phos (Homo sapiens, UniProt P00519)
T1 construct: gene ABL1; phosphorylated
Method in brief: (§1)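 Single-point profiling at 1 µM compound in a competition-binding format against 96 kinases, read out as POC relative to control; n = 1.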

[2] = target: T2, MNK1b (Homo sapiens, UniProt Q9BUB5)
T2 construct: gene MKNK1; isoform b
T2 sequence (Q9BUB5 whole entry, canonical isoform): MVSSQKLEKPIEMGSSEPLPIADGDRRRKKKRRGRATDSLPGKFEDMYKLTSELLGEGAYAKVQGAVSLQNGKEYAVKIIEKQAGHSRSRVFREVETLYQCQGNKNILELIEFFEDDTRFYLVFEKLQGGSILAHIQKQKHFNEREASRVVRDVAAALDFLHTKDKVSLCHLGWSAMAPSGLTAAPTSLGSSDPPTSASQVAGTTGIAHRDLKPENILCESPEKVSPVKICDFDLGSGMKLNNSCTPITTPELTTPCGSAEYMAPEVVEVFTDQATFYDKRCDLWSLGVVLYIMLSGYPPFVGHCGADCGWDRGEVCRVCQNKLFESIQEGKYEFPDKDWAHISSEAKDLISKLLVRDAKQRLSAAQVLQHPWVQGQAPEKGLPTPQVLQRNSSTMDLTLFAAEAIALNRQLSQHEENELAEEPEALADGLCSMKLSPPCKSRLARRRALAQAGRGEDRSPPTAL
Method in brief: as §1

[3] = target: HIPK1 (Homo sapiens, UniProt Q86Z02)
HIPK1, sequence (Q86Z02 whole entry): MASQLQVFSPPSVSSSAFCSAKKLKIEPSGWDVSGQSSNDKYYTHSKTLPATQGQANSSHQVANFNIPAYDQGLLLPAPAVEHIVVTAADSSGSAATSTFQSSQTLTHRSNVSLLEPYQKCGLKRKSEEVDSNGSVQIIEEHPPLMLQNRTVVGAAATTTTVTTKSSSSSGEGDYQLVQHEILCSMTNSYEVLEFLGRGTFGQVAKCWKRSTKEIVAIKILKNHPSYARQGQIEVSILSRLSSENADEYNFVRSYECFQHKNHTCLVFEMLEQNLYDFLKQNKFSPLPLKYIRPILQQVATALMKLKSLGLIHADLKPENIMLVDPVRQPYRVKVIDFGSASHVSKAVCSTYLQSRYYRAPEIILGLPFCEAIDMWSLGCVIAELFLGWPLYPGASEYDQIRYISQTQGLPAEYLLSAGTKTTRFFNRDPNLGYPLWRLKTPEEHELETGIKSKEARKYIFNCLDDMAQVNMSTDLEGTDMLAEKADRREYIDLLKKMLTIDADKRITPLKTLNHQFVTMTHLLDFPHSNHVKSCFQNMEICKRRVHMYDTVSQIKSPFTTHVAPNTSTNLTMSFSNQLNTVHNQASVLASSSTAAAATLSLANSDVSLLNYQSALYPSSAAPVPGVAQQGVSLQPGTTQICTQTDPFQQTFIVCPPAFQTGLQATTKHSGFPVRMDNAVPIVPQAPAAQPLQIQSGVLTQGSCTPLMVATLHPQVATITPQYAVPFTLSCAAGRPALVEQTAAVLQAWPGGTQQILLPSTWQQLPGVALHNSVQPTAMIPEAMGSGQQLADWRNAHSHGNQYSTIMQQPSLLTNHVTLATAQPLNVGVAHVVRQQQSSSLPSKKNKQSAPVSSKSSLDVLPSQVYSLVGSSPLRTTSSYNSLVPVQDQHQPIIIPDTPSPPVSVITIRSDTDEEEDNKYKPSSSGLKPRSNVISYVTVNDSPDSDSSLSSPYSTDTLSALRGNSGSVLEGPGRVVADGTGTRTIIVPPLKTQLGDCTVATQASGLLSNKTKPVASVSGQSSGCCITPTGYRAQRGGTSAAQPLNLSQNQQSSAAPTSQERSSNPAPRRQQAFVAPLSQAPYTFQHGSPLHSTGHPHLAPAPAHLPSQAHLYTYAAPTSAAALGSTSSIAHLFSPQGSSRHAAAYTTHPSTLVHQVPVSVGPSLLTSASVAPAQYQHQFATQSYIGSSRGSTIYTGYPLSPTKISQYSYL
Method in brief: as §1

[4] = target: JAK2 (Homo sapiens, UniProt O60674)
JAK2, sequence (O60674 whole entry): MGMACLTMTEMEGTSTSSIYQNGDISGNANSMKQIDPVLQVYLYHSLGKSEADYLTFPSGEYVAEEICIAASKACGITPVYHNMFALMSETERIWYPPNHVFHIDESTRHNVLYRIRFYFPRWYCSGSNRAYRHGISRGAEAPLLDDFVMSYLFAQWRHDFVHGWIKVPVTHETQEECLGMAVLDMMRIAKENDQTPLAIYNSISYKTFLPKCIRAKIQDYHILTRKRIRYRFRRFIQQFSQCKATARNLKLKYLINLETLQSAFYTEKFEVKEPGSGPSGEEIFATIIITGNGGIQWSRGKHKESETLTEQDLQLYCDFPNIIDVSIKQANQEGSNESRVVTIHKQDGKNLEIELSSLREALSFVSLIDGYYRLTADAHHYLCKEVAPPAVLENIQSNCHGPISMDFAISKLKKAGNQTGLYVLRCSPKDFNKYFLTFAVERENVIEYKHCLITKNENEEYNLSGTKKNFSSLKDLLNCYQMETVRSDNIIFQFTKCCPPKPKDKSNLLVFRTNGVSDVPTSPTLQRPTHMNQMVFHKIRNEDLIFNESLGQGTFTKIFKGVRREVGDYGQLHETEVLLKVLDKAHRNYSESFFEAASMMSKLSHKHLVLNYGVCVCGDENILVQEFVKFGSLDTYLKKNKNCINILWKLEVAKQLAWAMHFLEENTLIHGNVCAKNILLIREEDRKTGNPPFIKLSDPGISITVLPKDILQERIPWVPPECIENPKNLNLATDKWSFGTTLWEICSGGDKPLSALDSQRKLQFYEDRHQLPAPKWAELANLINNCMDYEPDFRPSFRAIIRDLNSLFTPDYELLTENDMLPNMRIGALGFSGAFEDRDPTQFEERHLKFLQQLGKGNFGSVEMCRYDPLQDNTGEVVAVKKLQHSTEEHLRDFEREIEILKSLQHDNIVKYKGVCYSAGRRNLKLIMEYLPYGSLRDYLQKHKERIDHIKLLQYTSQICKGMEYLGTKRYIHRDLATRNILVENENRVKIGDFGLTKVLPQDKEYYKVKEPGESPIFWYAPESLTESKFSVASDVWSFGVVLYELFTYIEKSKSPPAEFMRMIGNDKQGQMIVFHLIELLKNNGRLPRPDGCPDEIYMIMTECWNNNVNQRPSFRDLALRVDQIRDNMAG
Method in brief: as §1

[5] = target: bRAF (Homo sapiens, UniProt P15056)
bRAF, sequence (P15056 whole entry): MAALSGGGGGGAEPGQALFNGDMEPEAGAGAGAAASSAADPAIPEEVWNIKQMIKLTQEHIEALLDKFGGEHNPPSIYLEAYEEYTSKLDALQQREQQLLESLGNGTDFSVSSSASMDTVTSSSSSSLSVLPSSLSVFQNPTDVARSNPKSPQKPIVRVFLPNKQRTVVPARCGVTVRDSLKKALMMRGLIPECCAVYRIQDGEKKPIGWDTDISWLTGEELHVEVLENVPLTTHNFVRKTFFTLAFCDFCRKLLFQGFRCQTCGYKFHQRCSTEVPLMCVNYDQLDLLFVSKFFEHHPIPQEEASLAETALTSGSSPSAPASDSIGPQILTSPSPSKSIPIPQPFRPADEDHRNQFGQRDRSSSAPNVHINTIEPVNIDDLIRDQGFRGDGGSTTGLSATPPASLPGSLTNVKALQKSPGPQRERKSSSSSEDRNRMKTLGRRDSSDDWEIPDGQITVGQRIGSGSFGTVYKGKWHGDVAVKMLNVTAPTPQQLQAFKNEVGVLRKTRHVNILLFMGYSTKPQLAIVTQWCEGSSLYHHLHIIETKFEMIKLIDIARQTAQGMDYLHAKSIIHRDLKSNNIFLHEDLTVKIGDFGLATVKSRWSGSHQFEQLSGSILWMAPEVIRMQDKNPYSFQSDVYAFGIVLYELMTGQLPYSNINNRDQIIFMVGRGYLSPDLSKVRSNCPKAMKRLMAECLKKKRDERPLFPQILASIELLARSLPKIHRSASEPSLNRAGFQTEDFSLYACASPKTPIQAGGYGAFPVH
Method in brief: as §1

[6] = target: T3, MAP2K3 (Homo sapiens, UniProt P46734)
T3 sequence (P46734 1-347): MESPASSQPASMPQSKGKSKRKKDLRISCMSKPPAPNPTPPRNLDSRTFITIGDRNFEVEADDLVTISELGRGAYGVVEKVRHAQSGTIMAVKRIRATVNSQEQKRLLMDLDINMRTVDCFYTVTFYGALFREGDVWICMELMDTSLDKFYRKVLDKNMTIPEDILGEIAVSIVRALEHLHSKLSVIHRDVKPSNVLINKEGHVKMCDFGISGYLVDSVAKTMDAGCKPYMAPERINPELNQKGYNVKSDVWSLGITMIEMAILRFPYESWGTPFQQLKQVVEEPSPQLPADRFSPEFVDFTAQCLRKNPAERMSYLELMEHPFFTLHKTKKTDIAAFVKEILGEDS
Method in brief: as §1

[7] = target: CDK4 (Homo sapiens, UniProt P11802)
CDK4, sequence (P11802 whole entry): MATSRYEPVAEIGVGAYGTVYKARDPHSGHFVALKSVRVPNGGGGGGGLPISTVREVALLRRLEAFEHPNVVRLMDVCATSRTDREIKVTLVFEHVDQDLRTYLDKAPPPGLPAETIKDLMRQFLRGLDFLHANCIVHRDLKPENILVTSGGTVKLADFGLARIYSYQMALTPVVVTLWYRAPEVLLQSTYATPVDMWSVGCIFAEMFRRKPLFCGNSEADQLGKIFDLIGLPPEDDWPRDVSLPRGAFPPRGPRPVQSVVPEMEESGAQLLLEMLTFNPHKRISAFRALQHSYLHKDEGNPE
Method in brief: as §1

[8] = read-out: Kinome Profiling performed by Eurofins DiscoverX / AM-1882, 1.0 µM / POC
[9] = read-out: Kinome Profiling performed by Eurofins DiscoverX / AM-0277, 1.0 µM / POC
[10] = read-out: Kinome Profiling performed by Eurofins DiscoverX / AM-5308, 1.0 µM / POC

T1 sequence (P00519 whole entry): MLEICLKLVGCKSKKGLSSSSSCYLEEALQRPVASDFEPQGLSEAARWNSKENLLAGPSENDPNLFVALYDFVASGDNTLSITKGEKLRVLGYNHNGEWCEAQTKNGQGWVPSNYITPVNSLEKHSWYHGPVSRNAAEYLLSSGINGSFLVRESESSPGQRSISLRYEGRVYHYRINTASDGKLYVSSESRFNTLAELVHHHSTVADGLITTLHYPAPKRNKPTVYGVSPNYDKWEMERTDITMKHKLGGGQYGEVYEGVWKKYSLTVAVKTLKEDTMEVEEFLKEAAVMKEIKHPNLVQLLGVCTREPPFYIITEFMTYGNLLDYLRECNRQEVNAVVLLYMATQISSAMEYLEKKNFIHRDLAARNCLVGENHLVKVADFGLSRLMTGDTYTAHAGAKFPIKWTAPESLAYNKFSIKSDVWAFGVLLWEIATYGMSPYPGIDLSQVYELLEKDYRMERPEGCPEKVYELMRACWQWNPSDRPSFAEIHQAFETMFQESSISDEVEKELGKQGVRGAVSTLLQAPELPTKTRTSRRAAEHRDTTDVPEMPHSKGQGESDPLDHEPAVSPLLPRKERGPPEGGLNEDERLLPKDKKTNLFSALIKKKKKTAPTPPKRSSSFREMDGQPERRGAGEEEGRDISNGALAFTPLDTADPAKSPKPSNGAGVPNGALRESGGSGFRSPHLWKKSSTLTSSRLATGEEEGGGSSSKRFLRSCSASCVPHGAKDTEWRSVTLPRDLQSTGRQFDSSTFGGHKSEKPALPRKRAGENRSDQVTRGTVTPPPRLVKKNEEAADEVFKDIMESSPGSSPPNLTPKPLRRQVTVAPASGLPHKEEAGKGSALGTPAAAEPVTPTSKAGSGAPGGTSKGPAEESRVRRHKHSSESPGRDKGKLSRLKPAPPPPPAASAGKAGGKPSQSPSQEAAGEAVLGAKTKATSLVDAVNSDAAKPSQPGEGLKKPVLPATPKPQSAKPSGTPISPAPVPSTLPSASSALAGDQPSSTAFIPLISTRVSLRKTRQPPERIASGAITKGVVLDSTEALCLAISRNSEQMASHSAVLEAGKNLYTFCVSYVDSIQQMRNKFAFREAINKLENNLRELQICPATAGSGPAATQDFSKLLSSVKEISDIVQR

In the case of CC(C)(C)NS(=O)(=O)c1cccc(NC(=O)c2ccc(S(=O)(=O)NC(C)(C)C)cc2N2CCC3(CC2)CC3)c1 [AM-1882], the remaining activity at 1 µM [1, 8] is reported as 63.5%, the remaining activity at 1 µM [2, 8] is reported as 100% and the remaining activity at 1 µM [3, 8] is reported as 73%. The remaining activity at 1 µM [4, 8] was 100%, the remaining activity at 1 µM [5, 8] was 94.5% and the remaining activity at 1 µM [6, 8] was 67%. For the same molecule, the remaining activity at 1 µM [7, 8] was 64%.
Work on CC(C)(CO)Nc1ccc(C(=O)Nc2cccc(S(=O)(=O)C3CCCC3)c2)c(N2CCC3(CC2)CC3)n1 [AM-0277] yielded a remaining activity at 1 µM [1, 9] of 46%, a remaining activity at 1 µM [2, 9] of 100% and a remaining activity at 1 µM [3, 9] of 61%. It also gave a remaining activity at 1 µM [4, 9] of 100%, a remaining activity at 1 µM [5, 9] of 100% and a remaining activity at 1 µM [6, 9] of 96%. It also gave a remaining activity at 1 µM [7, 9] of 100%.
Molecule C[C@@H]1CN(c2cccc(NC(=O)c3ccc(NS(=O)(=O)CCO)cc3N3CCC4(CC3)CC4)n2)CCO1 [AM-5308] has a remaining activity at 1 µM [1, 10] of 98.5%, a remaining activity at 1 µM [2, 10] of 96.5% and a remaining activity at 1 µM [3, 10] of 100%. For the same molecule, the remaining activity at 1 µM [4, 10] was 94.5%, the remaining activity at 1 µM [5, 10] was 92.5% and the remaining activity at 1 µM [6, 10] was 88.5%. For the same molecule, the remaining activity at 1 µM [7, 10] was 98.5%.
